From ChEMBL document CHEMBL1146309, “Tetrahydrobenzotriazines as a new class of nematocide” (2007)

tested on: Caenorhabditis elegans; experiment: Nematocidal activity against Caenorhabditis elegans assessed as revised death rate after 24 to 48 hrs; type: functional; parameters: concentration or dose not given beside the values

Going from `CCCCCCCCCC(=O)N1N=C2C(C)=CC=CC2(C)CN1C` (stereo unspecified) to `CCCCCCCCCCC(=O)N1N=C2C(C)=CC=CC2(C)CN1C` (stereo unspecified), the Activity falls from 64.6% to 20.3%.

Compared with `CCCCCCCCC(=O)N1N=C2C(C)=CC=CC2(C)CN1C` (stereo unspecified), `CCCCCCCC(=O)N1N=C2C(C)=CC=CC2(C)CN1C` (stereo unspecified) is lower in Activity: 97% for the first, 10.3% for the second.

Compared with `CCCCCCCCCCCC(=O)N1N=C2C(C)=CC=CC2(C)CN1C` (stereo unspecified), `CC(=O)N1N=C2C(C)=CC=CC2(C)CN1C` (stereo unspecified) is higher in Activity: 17.2% for the first, 100% for the second.

Compared with `CC1=CC=CC2(C)CN(C)N(C(=S)Nc3ccccc3)N=C12` (stereo unspecified), `CC1=CC=CC2(C)CN(C)N(C(=O)Nc3ccccc3)N=C12` (stereo unspecified) is higher in Activity: 20.9% for the first, 43.8% for the second.

First: CC1=CC=CC2(C)CN(C)N(C(=O)N(C)c3ccccc3)N=C12 (stereo unspecified)
Second: CC1=CC=CC2(C)CN(C)N(C(=S)N(C)c3ccccc3)N=C12 (stereo unspecified)
The Activity of the first is lower: 74.2% for the first, 100% for the second.

`CN=C=S` [METHYLISOTHIOCYANATE] showed an Activity of 100%.
